Counter-ions that a name gives are not always drawn.
Experiments:
ENR+CD organoids = assay: Primary screen: ATP (CellTiter-Glo 3D, CTG) cell number/viability, 2.5-D 384-well ENR+CD organoids; details: primary screen; for Z.CTG: standard z score;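 on all read-outs here: compounds given at plating and again on day 3 over a 6-day differentiation from ENR+CV stem-cell-enriched precursors, ATP measured on day 6, plate median as control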
[1] = system: ENR+CD organoids (ISC to Paneth cell differentiation); assay: Primary screen: CCh-stimulated lysozyme secretion LYZ.S, 2.5-D 384-well ENR+CD organoid differentiation; format: cell-based, mouse; details: primary screen
From the text: (§1) High-throughput screening.

[2] = system: ENR+CD organoids (ISC to Paneth cell differentiation); assay: Primary screen: basal (non-stimulated) lysozyme secretion LYZ.NS, 2.5-D 384-well ENR+CD organoid differentiation; format: cell-based, mouse; details: primary screen; for Z.LYZ.NS: standard z score
From the text: as §1

[3] = dose 0.08 uM, FC vs plate median
[4] = dose 0.40 uM, FC vs plate median
[5] = dose 2.00 uM, FC vs plate median
[6] = dose 10.00 uM, FC vs plate median
[7] = dose 0.08 uM, FC relative to plate median
[8] = dose 0.40 uM, FC relative to plate median
[9] = dose 2.00 uM, FC relative to plate median
[10] = dose 10.00 uM, FC relative to plate median

CC[C@@H]1/C=C/C=C/C[C@H](C)[C@H](O)[C@](C)(O)C(=O)[C@H](C)[C@@H](O)[C@H](C)C(=O)[C@H](C)[C@@H](O)[C@H](C)/C=C/C(=O)O[C@H]2[C@@H](C)[C@@H](CC1)O[C@@]1(CC[C@@H](C)[C@@H](C[C@H](C)O)O1)[C@@H]2C [Oligomycin A]
Z.CTG (ENR+CD organoids; dose 0.08 uM): −1.581
Z.CTG (ENR+CD organoids; dose 0.40 uM): −1.685
Z.CTG (ENR+CD organoids; dose 2.00 uM): −2.261
Z.CTG (ENR+CD organoids; dose 10.00 uM): −2.972
Dose.FC.CTG (ENR+CD organoids; [3]): −0.662 log2 fold change
Dose.FC.CTG (ENR+CD organoids; [4]): −0.706 log2 fold change
Dose.FC.CTG (ENR+CD organoids; [5]): −0.946 log2 fold change
Dose.FC.CTG (ENR+CD organoids; [6]): −1.244 log2 fold change
Dose.FC.LYZ.S [1, 3]: −0.243 log2 fold change
Dose.FC.LYZ.S [1, 4]: −0.274 log2 fold change
Dose.FC.LYZ.S [1, 5]: −0.269 log2 fold change
Dose.FC.LYZ.S [1, 6]: −0.288 log2 fold change
Z.LYZ.NS ([2]; dose 0.08 uM): −1.778
Z.LYZ.NS ([2]; dose 0.40 uM): −2.013
Z.LYZ.NS ([2]; dose 2.00 uM): −1.857
Z.LYZ.NS ([2]; dose 10.00 uM): −1.943
Dose.FC.LYZ.NS [2, 3]: −0.204 log2 fold change
Dose.FC.LYZ.NS [2, 4]: −0.231 log2 fold change
Dose.FC.LYZ.NS [2, 5]: −0.213 log2 fold change
Dose.FC.LYZ.NS [2, 6]: −0.223 log2 fold change

Cl.Cl.NC1(c2ccc(-c3nc4ccn5c(=O)[nH]nc5c4cc3-c3ccccc3)cc2)CCC1 [MK-2206 2HCl]
Z.CTG (ENR+CD organoids; dose 0.08 uM): 0.169
Z.CTG (ENR+CD organoids; dose 0.40 uM): −0.055
Z.CTG (ENR+CD organoids; dose 2.00 uM): −0.425
Z.CTG (ENR+CD organoids; dose 10.00 uM): −1.290
Dose.FC.CTG (ENR+CD organoids; [3]): 0.071 log2 fold change
Dose.FC.CTG (ENR+CD organoids; [4]): −0.023 log2 fold change
Dose.FC.CTG (ENR+CD organoids; [5]): −0.178 log2 fold change
Dose.FC.CTG (ENR+CD organoids; [6]): −0.540 log2 fold change
Dose.FC.LYZ.S [1, 3]: 0.071 log2 fold change
Dose.FC.LYZ.S [1, 4]: 0.083 log2 fold change
Dose.FC.LYZ.S [1, 5]: −0.239 log2 fold change
Dose.FC.LYZ.S [1, 6]: −0.367 log2 fold change
Z.LYZ.NS ([2]; dose 0.08 uM): 0.205
Z.LYZ.NS ([2]; dose 0.40 uM): −0.550
Z.LYZ.NS ([2]; dose 2.00 uM): −1.587
Z.LYZ.NS ([2]; dose 10.00 uM): −2.058
Dose.FC.LYZ.NS [2, 3]: 0.024 log2 fold change
Dose.FC.LYZ.NS [2, 4]: −0.063 log2 fold change
Dose.FC.LYZ.NS [2, 5]: −0.182 log2 fold change
Dose.FC.LYZ.NS [2, 6]: −0.236 log2 fold change

CCOC(=O)[C@H](CCc1ccccc1)N[C@@H](C)C(=O)N1C(=O)N(C)C[C@H]1C(=O)O [Imidapril HCl]
Dose.FC.CTG (log2 fold change) (ENR+CD organoids; dose 0.08 uM): −0.333
Dose.FC.CTG (log2 fold change) (ENR+CD organoids; dose 0.40 uM): −0.148
Dose.FC.CTG (log2 fold change) (ENR+CD organoids; dose 2.00 uM): −0.236
Dose.FC.CTG (log2 fold change) (ENR+CD organoids; dose 10.00 uM): −0.227
Dose.FC.LYZ.S (log2 fold change) ([1]; dose 0.08 uM): −0.042
Dose.FC.LYZ.S (log2 fold change) ([1]; dose 0.40 uM): 0.109
Dose.FC.LYZ.S (log2 fold change) ([1]; dose 2.00 uM): −0.035
Dose.FC.LYZ.S (log2 fold change) ([1]; dose 10.00 uM): −0.075
Dose.FC.LYZ.NS (log2 fold change) ([2]; dose 0.08 uM): −0.006
Z.LYZ.NS (standard z score) ([2]; dose 0.08 uM): −0.049
Dose.FC.LYZ.NS (log2 fold change) ([2]; dose 0.40 uM): 0.000
Z.LYZ.NS (standard z score) ([2]; dose 0.40 uM): 0.004
Dose.FC.LYZ.NS (log2 fold change) ([2]; dose 2.00 uM): 0.014
Z.LYZ.NS (standard z score) ([2]; dose 2.00 uM): 0.121
Dose.FC.LYZ.NS (log2 fold change) ([2]; dose 10.00 uM): −0.081
Z.LYZ.NS (standard z score) ([2]; dose 10.00 uM): −0.706

CC(=O)O[C@H]1C[C@@H]2CC[C@@H]3[C@H](CC[C@@]4(C)[C@H]3C[C@H]([N+]3(C)CCCCC3)[C@@H]4OC(C)=O)[C@@]2(C)C[C@@H]1[N+]1(C)CCCCC1.[Br-].[Br-] [Pancuronium dibromide]
Z.CTG (ENR+CD organoids; dose 0.08 uM): 0.519
Z.CTG (ENR+CD organoids; dose 0.40 uM): 0.541
Z.CTG (ENR+CD organoids; dose 2.00 uM): −0.029
Z.CTG (ENR+CD organoids; dose 10.00 uM): 0.148
Dose.FC.CTG (ENR+CD organoids; [3]): 0.217 log2 fold change
Dose.FC.CTG (ENR+CD organoids; [4]): 0.226 log2 fold change
Dose.FC.CTG (ENR+CD organoids; [5]): −0.012 log2 fold change
Dose.FC.CTG (ENR+CD organoids; [6]): 0.062 log2 fold change
Dose.FC.LYZ.S [1, 3]: 0.213 log2 fold change
Dose.FC.LYZ.S [1, 4]: 0.094 log2 fold change
Dose.FC.LYZ.S [1, 5]: 0.099 log2 fold change
Dose.FC.LYZ.S [1, 6]: 0.004 log2 fold change
Z.LYZ.NS ([2]; dose 0.08 uM): 1.118
Z.LYZ.NS ([2]; dose 0.40 uM): 0.406
Z.LYZ.NS ([2]; dose 2.00 uM): 0.806
Z.LYZ.NS ([2]; dose 10.00 uM): 0.302
Dose.FC.LYZ.NS [2, 3]: 0.128 log2 fold change
Dose.FC.LYZ.NS [2, 4]: 0.047 log2 fold change
Dose.FC.LYZ.NS [2, 5]: 0.093 log2 fold change
Dose.FC.LYZ.NS [2, 6]: 0.035 log2 fold change

SN-38
Dose.FC.CTG (ENR+CD organoids; [7]): −0.720 log2 fold change
Z.CTG (ENR+CD organoids; dose 0.08 uM): −1.720
Dose.FC.CTG (ENR+CD organoids; [8]): −1.091 log2 fold change
Z.CTG (ENR+CD organoids; dose 0.40 uM): −2.606
Dose.FC.CTG (ENR+CD organoids; [9]): −1.226 log2 fold change
Z.CTG (ENR+CD organoids; dose 2.00 uM): −2.929
Dose.FC.CTG (ENR+CD organoids; [10]): −1.166 log2 fold change
Z.CTG (ENR+CD organoids; dose 10.00 uM): −2.785
Dose.FC.LYZ.S [1, 7]: −0.419 log2 fold change
Dose.FC.LYZ.S [1, 8]: −0.402 log2 fold change
Dose.FC.LYZ.S [1, 9]: −0.391 log2 fold change
Dose.FC.LYZ.S [1, 10]: −0.404 log2 fold change
Dose.FC.LYZ.NS [2, 7]: −0.275 log2 fold change
Z.LYZ.NS ([2]; dose 0.08 uM): −2.391
Dose.FC.LYZ.NS [2, 8]: −0.288 log2 fold change
Z.LYZ.NS ([2]; dose 0.40 uM): −2.505
Dose.FC.LYZ.NS [2, 9]: −0.305 log2 fold change
Z.LYZ.NS ([2]; dose 2.00 uM): −2.655
Dose.FC.LYZ.NS [2, 10]: −0.299 log2 fold change
Z.LYZ.NS ([2]; dose 10.00 uM): −2.606

C[C@@H]1CCN(C(=O)CC#N)C[C@@H]1N(C)c1ncnc2[nH]ccc12 [Tofacitinib (CP-690550, Tasocitinib)]
Dose.FC.CTG (ENR+CD organoids; dose 0.08 uM): 0.130 log2 fold change
Z.CTG (standard z score) (ENR+CD organoids; dose 0.08 uM): 0.312
Dose.FC.CTG (ENR+CD organoids; dose 0.40 uM): 0.249 log2 fold change
Z.CTG (standard z score) (ENR+CD organoids; dose 0.40 uM): 0.595
Dose.FC.CTG (ENR+CD organoids; dose 2.00 uM): 0.117 log2 fold change
Z.CTG (standard z score) (ENR+CD organoids; dose 2.00 uM): 0.278
Dose.FC.CTG (ENR+CD organoids; dose 10.00 uM): 0.236 log2 fold change
Z.CTG (standard z score) (ENR+CD organoids; dose 10.00 uM): 0.563
Dose.FC.LYZ.S ([1]; dose 0.08 uM): 0.022 log2 fold change
Dose.FC.LYZ.S ([1]; dose 0.40 uM): 0.010 log2 fold change
Dose.FC.LYZ.S ([1]; dose 2.00 uM): 0.025 log2 fold change
Dose.FC.LYZ.S ([1]; dose 10.00 uM): 0.010 log2 fold change
Dose.FC.LYZ.NS ([2]; dose 0.08 uM): −0.017 log2 fold change
Z.LYZ.NS (standard z score) ([2]; dose 0.08 uM): −0.146
Dose.FC.LYZ.NS ([2]; dose 0.40 uM): −0.015 log2 fold change
Z.LYZ.NS (standard z score) ([2]; dose 0.40 uM): −0.132
Dose.FC.LYZ.NS ([2]; dose 2.00 uM): −0.007 log2 fold change
Z.LYZ.NS (standard z score) ([2]; dose 2.00 uM): −0.061
Dose.FC.LYZ.NS ([2]; dose 10.00 uM): −0.004 log2 fold change
Z.LYZ.NS (standard z score) ([2]; dose 10.00 uM): −0.036

CCc1c2c(nc3ccc(OC(=O)N4CCC(N5CCCCC5)CC4)cc13)-c1cc3c(c(=O)n1C2)COC(=O)[C@]3(O)CC [Irinotecan]
Dose.FC.CTG (log2 fold change) (ENR+CD organoids; dose 0.08 uM): −0.111
Dose.FC.CTG (log2 fold change) (ENR+CD organoids; dose 0.40 uM): −0.784
Dose.FC.CTG (log2 fold change) (ENR+CD organoids; dose 2.00 uM): −0.785
Dose.FC.CTG (log2 fold change) (ENR+CD organoids; dose 10.00 uM): −1.235
Dose.FC.LYZ.S (log2 fold change) ([1]; dose 0.08 uM): −0.004
Dose.FC.LYZ.S (log2 fold change) ([1]; dose 0.40 uM): −0.145
Dose.FC.LYZ.S (log2 fold change) ([1]; dose 2.00 uM): −0.247
Dose.FC.LYZ.S (log2 fold change) ([1]; dose 10.00 uM): −0.251
Dose.FC.LYZ.NS (log2 fold change) ([2]; dose 0.08 uM): −0.031
Z.LYZ.NS (standard z score) ([2]; dose 0.08 uM): −0.272
Dose.FC.LYZ.NS (log2 fold change) ([2]; dose 0.40 uM): −0.072
Z.LYZ.NS (standard z score) ([2]; dose 0.40 uM): −0.630
Dose.FC.LYZ.NS (log2 fold change) ([2]; dose 2.00 uM): −0.170
Z.LYZ.NS (standard z score) ([2]; dose 2.00 uM): −1.476
Dose.FC.LYZ.NS (log2 fold change) ([2]; dose 10.00 uM): −0.163
Z.LYZ.NS (standard z score) ([2]; dose 10.00 uM): −1.417

COc1ccc2c(c1)c(C1=C(c3c[nH]c4ccccc34)C(=O)NC1=O)cn2CCCN(C)C [Go 6983]
Dose.FC.CTG (log2 fold change) (ENR+CD organoids; dose 0.08 uM): 0.021
Z.CTG (standard z score) (ENR+CD organoids; dose 0.08 uM): 0.050
Dose.FC.CTG (log2 fold change) (ENR+CD organoids; dose 0.40 uM): −0.036
Z.CTG (standard z score) (ENR+CD organoids; dose 0.40 uM): −0.085
Dose.FC.CTG (log2 fold change) (ENR+CD organoids; dose 2.00 uM): 0.058
Z.CTG (standard z score) (ENR+CD organoids; dose 2.00 uM): 0.138
Dose.FC.CTG (log2 fold change) (ENR+CD organoids; dose 10.00 uM): −0.181
Z.CTG (standard z score) (ENR+CD organoids; dose 10.00 uM): −0.433
Dose.FC.LYZ.S (log2 fold change) ([1]; dose 0.08 uM): 0.021
Dose.FC.LYZ.S (log2 fold change) ([1]; dose 0.40 uM): 0.007
Dose.FC.LYZ.S (log2 fold change) ([1]; dose 2.00 uM): −0.010
Dose.FC.LYZ.S (log2 fold change) ([1]; dose 10.00 uM): −0.073
Dose.FC.LYZ.NS (log2 fold change) ([2]; dose 0.08 uM): −0.005
Z.LYZ.NS (standard z score) ([2]; dose 0.08 uM): −0.046
Dose.FC.LYZ.NS (log2 fold change) ([2]; dose 0.40 uM): 0.013
Z.LYZ.NS (standard z score) ([2]; dose 0.40 uM): 0.114
Dose.FC.LYZ.NS (log2 fold change) ([2]; dose 2.00 uM): 0.091
Z.LYZ.NS (standard z score) ([2]; dose 2.00 uM): 0.791
Dose.FC.LYZ.NS (log2 fold change) ([2]; dose 10.00 uM): −0.092
Z.LYZ.NS (standard z score) ([2]; dose 10.00 uM): −0.798
